Measurements from US20260248789A1, “CONTROLLED RELEASE PDE10A FORMULATIONS” (Merck Sharp & Dohme LLC, priority 2023, published 2026).

What was measured:
[1] = Study 2: multiple-dose titration study, PK of CR formulation; assay type: in vivo; conditions: human, plasma, oral, highest dose level in Study 2 (48 mg, CR formulation, schizophrenia)
Protocol: (§1) Study 2 was designed similarly to Study 1; participants were administered CR Release formulations of Compound A/placebo as monotherapy in participants with schizophrenia (n=16) and healthy participants (n=16), or as adjunctive therapy (n=17) (schizophrenia participants only) and titrated from 4 mg to 24 mg (see Table 3 for illustration of PK at the 24 mg dose level as monotherapy in healthy adults). In Study 2 an additional panel of participants with schizophrenia was administered CR formulations of Compound A/placebo as monotherapy and titrated from 8 mg to 48 mg (n=26)(see Table 4 for illustration of PK at the 48 mg dose level).

[2] = Study 2: tolerability of CR formulation; assay type: in vivo, human; conditions: Study 2, CR formulation titrated from 4 mg to 24 mg and from 8 mg to 48 mg
Protocol: as §1

[3] = Study 3: tolerability / adverse events of CR formulation; assay type: in vivo, human
Protocol: In Study 3, one panel of participants [(n=8)—monotherapy in adult participants with schizophrenia] were titrated from 16 mg to 24 mg or placebo, while in another panel participants (n=18) received 24 mg/placebo without titration (Table 5) to determine if titration was required for tolerability.
There were 2 events of transient dystonia following the first dose of 16 mg, but both events responded to treatment and participants continued dosing without recurrence. […] Other adverse events (i.e., depression, anxiety and stress) across all three studies were mostly mild or moderate in intensity and there was no clear dose-related increase in specific events (Table 6).

[4] = Study 7: tolerability in healthy subjects 8-72 mg; assay type: in vivo, human; conditions: Study 7, healthy subjects (n=12) dosed 8 mg to 72 mg; up to and including doses of 48 mg
Source text: Plasma exposures in this study were generally similar those observed in the other multiple dose studies reported here (data not shown).

[5] = 24 mg (Day 1-7), Panel B, participants with schizophrenia, 14 in population

Cmax [1]: ~1.8 µM
concentration at 24 h ([1]; read-out: C24): ~1.2 µM
SMILES: Cc1ccc([C@H]2C[C@@H]2COc2cc(NCc3nnc(C)s3)nc(C)n2)nc1 [Compound A, 2-methyl-N-((5-methyl-1,3,4-thiadiazol-2-yl)methyl)-6-(((1S,2S)-2-(5-methylpyridin-2-yl)cyclopropyl)methoxy)pyrimidin-4-amine]
dystonia [2]: no Compound A-related dystonia was observed
Alanine aminotransferase increased, (%) [3, 5]: (7.1) %
Decreased appetite, (%) [3, 5]: (7.1) %
Hypertonia, (%) [3, 5]: (7.1) %
Investigations (non-serious related AE), (%) [3, 5]: (7.1) %
Metabolism and nutrition disorders, (%) [3, 5]: (7.1) %
Musculoskeletal and connective tissue disorders, (%) [3, 5]: (7.1) %
Musculoskeletal stiffness, (%) [3, 5]: (7.1) %
Nervous system disorders, (%) [3, 5]: (21.4) %
Participants with no Non-Serious Related Adverse Event, (%) [3, 5]: (64.3) %
Participants with one or more Non-Serious Related Adverse Event, (%) [3, 5]: (35.7) %
Somnolence, (%) [3, 5]: (14.3) %
tolerability ([3]; Study 3, dosing initiated at 16 mg or 24 mg with no titration): generally well tolerated
dystonia ([3]; Study 3, dosing initiated at 24 mg without titration): No events of dystonia were reported
events of transient dystonia ([3]; Study 3, following the first dose of 16 mg): 2
dystonia [4]: no dystonia was reported
